From patent US5726164A, “Nanosuspensions for intravenous administration” (Novartis Corporation, priority 1995, dated 1998)
“Also recorded” adds a separate entry of the source.

Legend:
water solubility = type: physicochemical; conditions: at room temperature
Source text: A staurosporin derivative that is sparingly soluble in water is disclosed, for example, in U.S. Pat. No. 5,093,330 and is derived from staurosporin by additional substitution of the free hydrogen atom at the nitrogen of the N-methylamino substituent. Poor solubility in water is a characteristic property of staurosporin derivatives, which renders them unsuitable for intravenous dosage forms.

[1] = cited from earlier work

`CO[C@@H]1[C@H](N(C)C(=O)c2ccccc2)C[C@H]2O[C@]1(C)n1c3ccccc3c3c4c(c5c6ccccc6n2c5c31)C(=O)NC4` [N-benzoyl-staurosporin] gave a solubility (water solubility) of less than 0.1 µg/mL.

For `CN[C@@H]1C[C@H]2O[C@@](C)([C@@H]1OC)n1c3ccccc3c3c4c(c5c6ccccc6n2c5c31)C(=O)NC4` [staurosporin], the “water solubility (in words)” value [1] is given as “particularly poor water solubility; also recorded: extremely low water solubility”.
